Values after ≈ are worked out from the molar mass of the structure shown.

For the assay, the system named is Mycobacterium tuberculosis. In words: Antituberculosis activity against multi drug-resistant Mycobacterium tuberculosis after 7 days using resazurin dye by broth microdilution assay. Type of assay: functional. To be noted: 168 h. (In general: The colour change of resazurin is a common sign of viable cells or microbes.)
For `Oc1cc(F)ccc1/C=N/Nc1cc(C(F)(F)F)nc2c(C(F)(F)F)cccc12`, the MIC is greater than 50 µM.
For `FC(F)C(F)(F)Oc1cccc(/C=N/Nc2cc(C(F)(F)F)nc3c(C(F)(F)F)cccc23)c1`, the MIC came to 25 µM (≈ 12.5 µg/mL).
The compound `COc1ccc(/C=N/Nc2cc(C(F)(F)F)nc3c(C(F)(F)F)cccc23)cc1O` showed an MIC of 12.5 µM (≈ 5.37 µg/mL).
With `COc1ccc(/C=N/Nc2cc(C(F)(F)F)nc3c(C(F)(F)F)cccc23)c(F)c1`, the MIC is 6.25 µM (≈ 2.7 µg/mL).
The compound `FC(F)(F)c1cc(N/N=C/c2cccs2)c2cccc(C(F)(F)F)c2n1` displayed an MIC greater than 50 µM.
The same measure for `FC(F)(F)c1cc(N/N=C/c2cccnc2)c2cccc(C(F)(F)F)c2n1`: greater than 50 µM.
The figure for `FC(F)(F)c1cc(N/N=C/C2CCCCC2)c2cccc(C(F)(F)F)c2n1` is 6.25 µM (≈ 2.43 µg/mL).
With `FC(F)(F)Oc1cccc(/C=N/Nc2cc(C(F)(F)F)nc3c(C(F)(F)F)cccc23)c1`, inhibition of growth (MIC) required 12.5 µM (≈ 5.84 µg/mL).
`CCCCCCC/C=N/Nc1cc(C(F)(F)F)nc2c(C(F)(F)F)cccc12` yielded an MIC of 6.25 µM (≈ 2.53 µg/mL).
For `FC(F)(F)c1cc(N/N=C/c2cocc2Br)c2cccc(C(F)(F)F)c2n1`, the MIC is greater than 50 µM.
As for `FC(F)(F)c1cc(N/N=C/c2c[nH]cn2)c2cccc(C(F)(F)F)c2n1`, the lowest concentration to inhibit growth (MIC) was 6.25 µM (≈ 2.33 µg/mL).
On to `Cn1cc(Cl)c(/C=N/Nc2cc(C(F)(F)F)nc3c(C(F)(F)F)cccc23)n1`, for which the MIC was determined as 6.25 µM (≈ 2.64 µg/mL).
The same measure for `FC(F)(F)c1cc(N/N=C/c2ccc3c(c2)CCO3)c2cccc(C(F)(F)F)c2n1`: 12.5 µM (≈ 5.32 µg/mL); for `Cn1cccc1/C=N/Nc1cc(C(F)(F)F)nc2c(C(F)(F)F)cccc12`: 25 µM (≈ 9.66 µg/mL).
As for `FC(F)(F)c1cc(N/N=C/c2ccc3nonc3c2)c2cccc(C(F)(F)F)c2n1`, the MIC was 12.5 µM (≈ 5.32 µg/mL).
In turn, `Cn1nnc2cc(/C=N/Nc3cc(C(F)(F)F)nc4c(C(F)(F)F)cccc34)ccc21` registered an MIC of 25 µM (≈ 11 µg/mL).
In turn, `Cc1cccc2c(/C=N/Nc3cc(C(F)(F)F)nc4c(C(F)(F)F)cccc34)c[nH]c12` gave an MIC of 12.5 µM (≈ 5.45 µg/mL).
The figure for `CC(=O)OCc1ccc(/C=N/Nc2cc(C(F)(F)F)nc3c(C(F)(F)F)cccc23)o1` is greater than 50 µM; for `Cc1nc[nH]c1/C=N/Nc1cc(C(F)(F)F)nc2c(C(F)(F)F)cccc12` it is 6.25 µM (≈ 2.42 µg/mL).
In turn, `COc1ccc2[nH]cc(/C=N/Nc3cc(C(F)(F)F)nc4c(C(F)(F)F)cccc34)c2c1` gave an MIC greater than 50 µM.
`O=C(NNc1cc(C(F)(F)F)nc2c(C(F)(F)F)cccc12)Nc1ccc(F)cc1` gave an MIC of 12.5 µM (≈ 5.4 µg/mL).
`N#Cc1cccc(NC(=O)NNc2cc(C(F)(F)F)nc3c(C(F)(F)F)cccc23)c1` showed an MIC greater than 50 µM.
`COc1ccccc1NC(=O)NNc1cc(C(F)(F)F)nc2c(C(F)(F)F)cccc12` came in with an MIC of 12.5 µM (≈ 5.55 µg/mL).
In the case of `Cc1cc(C)cc(NC(=O)NNc2cc(C(F)(F)F)nc3c(C(F)(F)F)cccc23)c1`, the MIC amounted to 6.25 µM (≈ 2.76 µg/mL).
In turn, `CCCCCNC(=O)NNc1cc(C(F)(F)F)nc2c(C(F)(F)F)cccc12` came in with an MIC greater than 50 µM.
Take `Fc1ccccc1NC(=S)NNc1cc(C(F)(F)F)nc2c(C(F)(F)F)cccc12`: the MIC is greater than 50 µM.
Turning to `COCCNC(=S)NNc1cc(C(F)(F)F)nc2c(C(F)(F)F)cccc12`, the lowest concentration to inhibit growth (MIC) was 25 µM (≈ 10.3 µg/mL).
Compound `NNC(=O)c1ccncc1` [ISONIAZID] yielded an MIC of 12.5 µM (≈ 1.71 µg/mL).
For the compound `CO[C@H]1/C=C/O[C@@]2(C)Oc3c(C)c(O)c4c(O)c(c(/C=N/N5CCN(C)CC5)c(O)c4c3C2=O)NC(=O)/C(C)=C\C=C\[C@H](C)[C@H](O)[C@@H](C)[C@@H](O)[C@@H](C)[C@H](OC(C)=O)[C@@H]1C` [RIFAMPIN], it took 25 µM (≈ 20.6 µg/mL) to inhibit growth (MIC).

What is called MIC is the least concentration at which growth counts as inhibited. A low value points to inhibition by little substance.

The values above are taken from ChEMBL document CHEMBL1208682, “New quinoline derivatives: synthesis and investigation of antibacterial and antituberculosis properties” (2010).
